Two compounds from patent US12643853B2, “Cannabigerol proline cocrystals” (Manoira Corporation, priority 2019, dated 2026) can be followed below.

The conditions of series [1]: oven at 100° C. for 20 hours. As for the experimental part:
(§1) X-Ray Powder Diffraction Characterisation: X-ray powder diffraction patterns for the samples were acquired on a Bruker D8 diffractometer using CuKα radiation (40 kV, 40 mA), θ-2θ goniometer, V4 receiving slits, a Ge monochromator and a Lynxeye detector. The instrument is performance checked using a certified Corundum standard (NIST 1976). The data were collected over an angular range of 4° to 30° 2Θ using a step size of 0.05° 2Θ and a step time of 4 seconds. Samples were run under ambient conditions as flat plate specimens using powder as received. Approximately, 35 mg of the sample was gently packed into a cavity cut into polished, zero background (510) silicon wafer. The software used for data collection and analysis was Diffrac Plus XRD Commander and Diffrac Plus EVA respectively.

The conditions of series [2]: sealed container, 40° C. and 75% relative humidity, 8 weeks. As for the experimental part:
as §1
A study was carried out to examine the physical stability of the 1:2 cannabigerol L-proline cocrystal with respect to solid form conversion or deliquescence over time under accelerated conditions. 1:2 Cannabigerol L-proline cocrystal (50 mg) was placed in a sealed container at 40° C. and 75% relative humidity and stored under these conditions for 8 weeks. […] The sample was analysed by XRPD to observe any potential form changes.

Series [3] is described as follows: Solid-state stability of cannabigerol Form I at 50° C. In kind it is physicochemical. As to conditions: oven at 50° C. for 10 minutes; for solid form by XRPD after heating and cooling: then allowed to cool. The procedure:
A study was carried out to assess the stability of cannabigerol Form I under conditions of temperatures commonly reached during processing and storage. Cannabigerol Form I (50 mg) was placed in an oven at 50° C. for 10 minutes. […] The sample was allowed to cool after which time a solid was produced.

As to `CCCCCc1cc(O)c(C/C=C(\C)CCC=C(C)C)c(O)c1.O=C(O)[C@@H]1CCCN1.O=C(O)[C@@H]1CCCN1` [1:2 cannabigerol L-proline cocrystal], the “solid form conversion by XRPD after high temperature storage” value in series [1] was “retained its original crystalline form”. In addition, the “physical state / deliquescence after storage” value in series [2] is listed as “completely solid with no signs of deliquescence”. For the same compound, in series [2] (XRPD), the “solid form conversion by XRPD after storage” value is “retained its original crystalline form”.

With `CCCCCc1cc(O)c(C/C=C(\C)CCC=C(C)C)c(O)c1` [Cannabigerol Form I, 2-[(2E)-3,7-dimethylocta-2,6-dienyl]-5-pentyl-benzene-1,3-diol], the “physical state after heating” value in series [3] is recorded as “melted to produce an oil”; in series [3] (listed as cannabigerol Form I), “became a liquid”. For the same compound, the “solid form by XRPD after heating and cooling” value in series [3] was “undergone a polymorph transition to form a new polymorphic form (designated Form III)”; in series [3] (listed as cannabigerol Form I), “undergone a form conversion to a previously unidentified polymorph (designated Form III)”.
